Columns and labels:
Type in all cases: cell-based
[1] = tested on: Human myeloid monocytic leukemia cell line (MV-4-11); test: Inhibition of MV-4-11 cell proliferation (CellTiter luminescent viability); conditions: Homo sapiens, MV4-11, Table IA3, IRAK4 inhibitor-based, 96 hours; for inhibition at 0.01 µM: MV-4-11, 10 nM, read-out: Inhibition Rate at 10 nM (%); for inhibition at 0.5 µM: MV-4-11, 500 nM, read-out: Inhibition Rate at 500 nM (%)
In short: (§1)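 Cells are seeded in 96-well plates, cultured at 37 °C, 5% CO2, and treated next day with 5-fold serial compound dilutions (stock series from 2000 μM; 0.5 μL into 100 μL medium). Viability is read by CellTiter-Meiluncell luminescence after the set exposure, and IC50 is taken from growth-inhibition curves.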

IRAK4 = target: T1, IRAK4 (Homo sapiens, UniProt Q9NWZ3); test: Western blot degradation of IRAK4; conditions: hPBMC Cell; 24 hours
T1 construct: expression of target proteins in cells; endogenous in cells
T1 sequence (Q9NWZ3 1-460): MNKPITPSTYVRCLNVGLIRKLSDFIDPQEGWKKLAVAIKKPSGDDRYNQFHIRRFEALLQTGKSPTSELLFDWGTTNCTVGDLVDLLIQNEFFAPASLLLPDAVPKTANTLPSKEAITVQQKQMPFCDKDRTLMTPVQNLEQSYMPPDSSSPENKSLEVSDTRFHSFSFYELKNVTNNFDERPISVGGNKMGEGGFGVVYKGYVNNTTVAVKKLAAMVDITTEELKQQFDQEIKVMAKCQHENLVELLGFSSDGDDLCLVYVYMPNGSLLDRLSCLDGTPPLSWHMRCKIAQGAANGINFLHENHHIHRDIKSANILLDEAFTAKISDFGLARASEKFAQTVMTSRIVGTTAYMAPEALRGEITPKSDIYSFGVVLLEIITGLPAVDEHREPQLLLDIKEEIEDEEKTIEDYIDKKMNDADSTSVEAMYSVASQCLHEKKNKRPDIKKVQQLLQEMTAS
In short: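 Immunoblot of drug-treated versus DMSO-treated cell lysates, with densitometric quantification. Values: DC50 (50% band loss, fitted) and loading-control-normalised % remaining or degradation.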

[2] = tested on: Human B-Cell Lymphoma Cells (RPMI-8226); test: Inhibition of RPMI-8226 cell proliferation (CellTiter luminescent viability); conditions: Table IA4, IRAK4 inhibitor-based, RPMI-8226, 500 nM, 96 hours, read-out: Inhibition Rate at 500 nM (%)
Procedure: (§2) The tumor cells used herein were cultured in a cell culture medium listed in table 3 at 37 °C in an incubator with 5% CO2. Prior to experimentation, all cell lines used were correctly identified by STR profiling, and tested negative for mycoplasma contamination using a mycoplasma detection kit through routine screenings.
(§3) The IC50 values of the compounds of the present disclosure (including the compounds in Table 1, Table 2, and Examples 1-468) were determined using the CellTiter-Meiluncell Luminescent Cell Viability Assay Kit from Dalian Meilun Biotech Co., Ltd. The detailed procedure is as follows: Tumor cells were seeded in 96-well cell culture plates at the densities specified in Table 4. On the following day, the test compounds of the present disclosure were subjected to serial dilution. The dilution can be performed according to one of the following two methods: • (1) The first dilution method: The test compounds of the present disclosure (including the compounds in Table 1, Table 2, and Examples 1-468) were subjected to 5-fold serial dilutions starting from a highest concentration of 2000 μM, resulting in a total of 9 concentrations from high to low (2000, 400, 80, 16, 3.2, 0.64, 0.128, 0.0256, 0.00512 μM). Subsequently, 0.5 μL of the test compound dilution was transferred into the 96-well plate containing the cells, with each well containing 100 μL of cell culture medium. […] Into the 96-well plate, the diluted test compounds and corresponding detection reagents were added, resulting in final test compound concentrations of 500 nM and 10 nM, respectively. The experimental procedure is described below using the diluted 2 μM test compound as an example.
(§4) 0.5 μL of the aforementioned diluted compound of the present disclosure (including the compounds in Table 1, Table 2, and Examples 1-468) was added to the seeded cells in 100 μL of medium, yielding a final test compound concentration of 10 nM. After the cells were treated with the compounds of the present disclosure for a specified period, the cell viability assay reagent was added to the culture medium according to the kit's instructions to determine cell viability. […] All controls were treated using the same procedure as the compounds of the present disclosure. The growth inhibition curves for the compounds of the present disclosure were plotted using Prism GraphPad software, and the IC50 values were calculated therefrom.

[3] = as above; conditions: Homo sapiens; Table IA4, IRAK4 inhibitor-based; RPMI-8226, 10 nM, 96 hours; read-out: Inhibition Rate at 10 nM (%)
Procedure: as §2, §3, §4

[4] = tested on: Human Multiple myeloma cell line (MM.1S); test: Inhibition of MM.1S cell proliferation (CellTiter luminescent viability); conditions: Homo sapiens, MM1.S, Table IA5, IRAK4 inhibitor-based, 96 hours; for inhibition at 0.01 µM: 10 nM, read-out: Inhibition Rate at 10 nM (%); for inhibition at 0.5 µM: 500 nM, read-out: Inhibition Rate at 500 nM (%)
In short: as §1

| Structure (SMILES) | Degradation of substrate protein IRAK4 (substrate protein remaining %) (IRAK4) | inhibition at 0.01 µM [1] | inhibition at 0.5 µM [1] | inhibition at 0.5 µM [2] | inhibition at 0.01 µM [3] | inhibition at 0.01 µM [4] | inhibition at 0.5 µM [4] |
| --- | --- | --- | --- | --- | --- | --- | --- |
| O=C1CCN(N2C(=O)c3ccc(CN4CCC(n5cc(NC(=O)c6coc(-c7ccnc(NCC(F)(F)F)c7)n6)c(C(F)F)n5)CC4)cc3C2=O)C(=O)N1 [GT-05188, N-(3-(difluoromethyl)-1-(1-((2-(2,4-dioxotetrahydropyrimidin-1(2H)-yl)-1,3-dioxoisoindolin-5-yl)methyl)piperidin-4-yl)-1H-pyrazol-4-yl)-2-(2-((2,2,2-trifluoroethyl)amino)pyridin-4-yl) oxazole-4-carboxamide] | A (0%≤substrate protein remaining %≤80%) | 36 to 45% | 80 to 100% | 40 to 60% | 30 to 40% | 10 to 15% | 30 to 40% |
| CC(C)Nc1cc(-n2ccc3cc(C#N)cnc32)ncc1C(=O)NC1CCN(Cc2ccc3c(c2)CN(N2CCC(=O)NC2=O)C3=O)CC1 [GT-05319, 6-(5-cyano-1H-pyrrolo[2,3-b]pyridin-1-yl)-N-(1-((2-(2,4-dioxotetrahydropyrimidin-1(2H)-yl)-1-oxoisoindolin-5-yl)methyl)piperidin-4-yl)-4-((isopropyl)amino) nicotinamide] | A (0%≤substrate protein remaining %≤80%) | – | – | 40 to 60% | 30 to 40% | 30 to 40% | 30 to 40% |
| O=C1CCN(N2C(=O)c3cc(F)c(N4CCN(C[C@H]5CC[C@H](n6cc(NC(=O)c7cnn8ccc(N9C[C@H]%10C[C@@H]9CO%10)nc78)c(C(F)F)n6)CC5)CC4)cc3C2=O)C(=O)N1 [GT-05239, 5-((1R,4R)-2-oxa-5-azabicyclo[2.2.1]heptan-5-yl)-N-(3-(difluoromethyl)-1-((1r,4R)-4-((4-(2-(2,4-dioxotetrahydropyrimidin-1(2H)-yl)-6-fluoro-1,3-dioxoisoindolin-5-yl)piperazin-1-yl)methyl)cyclohexyl)-1H-pyrazol-4-yl)pyrazolo[1,5-a]pyrimidine-3-carboxamide] | A (0%≤substrate protein remaining %≤80%) | – | – | 20 to 25% | 30 to 40% | – | – |
| O=C1CCN(N2C(=O)c3ccc(N4CCC(CN5CCC(n6cc(NC(=O)c7cnn8ccc(N9CCOCC9)nc78)c(C(F)F)n6)CC5)CC4)cc3C2=O)C(=O)N1 [GT-05291, N-(3-(difluoromethyl)-1-(1-((1-(2-(2,4-dioxotetrahydropyrimidin-1(2H)-yl)-1,3-dioxoisoindolin-5-yl)piperidin-4-yl)methyl)piperidin-4-yl)-1H-pyrazol-4-yl)-5-morpholinopyrazolo[1,5-a]pyrimidine-3-carboxamide] | A (0%≤substrate protein remaining %≤80%) | 50 to 60% | 60 to 80% | 25 to 30% | 25 to 30% | 10 to 15% | 20 to 25% |

Now from value to molecule, other results behind:

| Degradation of substrate protein IRAK4 (substrate protein remaining %) (IRAK4) | Structure (SMILES) | inhibition at 0.01 µM [1] | inhibition at 0.5 µM [1] | inhibition at 0.5 µM [2] | inhibition at 0.01 µM [3] | inhibition at 0.01 µM [4] | inhibition at 0.5 µM [4] |
| --- | --- | --- | --- | --- | --- | --- | --- |
| A (0%≤substrate protein remaining %≤80%) | O=C1CCN(N2C(=O)c3ccc(N4CCC(N5CCC(CN6CCC(n7cc(NC(=O)c8cnn9ccc(N%10C[C@H]%11C[C@@H]%10CO%11)nc89)c(C(F)F)n7)CC6)CC5)CC4)cc3C2=O)C(=O)N1 [GT-05816, 5-((1R,4R)-2-oxa-5-azabicyclo[2.2.1]heptan-5-yl)-N-(3-(difluoromethyl)-1-(1-((1′-(2-(2,4-dioxotetrahydropyrimidin-1(2H)-yl)-1,3-dioxoisoindolin-5-yl)-[1,4′-bipiperidin]-4-yl)methyl)piperidin-4-yl)-1H-pyrazol-4-yl)pyrazolo[1,5-a]pyrimidine-3-carboxamide] | -10 to -5% | 50 to 60% | 15 to 20% | 30 to 40% | – | – |
| A (0%≤substrate protein remaining %≤80%) | Cc1cc(-c2nc(C(=O)Nc3cc4oc(N5CCN(CC6CCN(c7cccc8c7C(=O)N(N7CCC(=O)NC7=O)C8=O)CC6)CC5)nc4nc3N3CC[C@@H](O)C3)co2)ccn1 [GT-05806, (R)—N-(2-(4-((1-(2-(2,4-dioxotetrahydropyrimidin-1(2H)-yl)-1,3-dioxoisoindolin-4-yl)piperidin-4-yl)methyl)piperazin-1-yl)-5-(3-hydroxypyrrolidin-1-yl)oxazolo[4,5-b]pyridin-6-yl)-2-(2-methylpyridin-4-yl) oxazole-4-carboxamide] | 45 to 50% | 80 to 100% | 25 to 30% | 20 to 25% | – | – |
| A (0%≤substrate protein remaining %≤80%) | CC(C)(O)c1cc2nc(C3CCN(CC4CCN(c5cccc6c5C(=O)N(N5CCC(=O)NC5=O)C6=O)CC4)CC3)sc2cc1NC(=O)c1cccc(C(F)(F)F)n1 [GT-05818, N-(2-(1-((1-(2-(2,4-dioxotetrahydropyrimidin-1(2H)-yl)-1,3-dioxoisoindolin-4-yl)piperidin-4-yl)methyl)piperidin-4-yl)-5-(2-hydroxypropan-2-yl)benzo[d]thiazol-6-yl)-6-(trifluoromethyl) picolinamide] | 10 to 20% | 50 to 60% | 10 to 15% | 20 to 25% | – | – |
| A (0%≤substrate protein remaining %≤80%) | CC(C)(O)c1cc2nc(C3CCN(CC4CCN(c5ccc6c(c5)C(=O)N(N5CCC(=O)NC5=O)C6=O)CC4)CC3)sc2cc1NC(=O)c1cccc(C(F)(F)F)n1 [GT-05819, N-(2-(1-((1-(2-(2,4-dioxotetrahydropyrimidin-1(2H)-yl)-1,3-dioxoisoindolin-5-yl)piperidin-4-yl)methyl)piperidin-4-yl)-5-(2-hydroxypropan-2-yl)benzo[d]thiazol-6-yl)-6-(trifluoromethyl) picolinamide] | – | – | 25 to 30% | 15 to 20% | – | – |
| A (0%≤substrate protein remaining %≤80%) | O=C1CCN(N2C(=O)c3ccc(N4CC5CCC(C4)N5C[C@H]4CC[C@H](n5cc(NC(=O)c6cnn7ccc(N8C[C@H]9C[C@@H]8CO9)nc67)c(C(F)F)n5)CC4)cc3C2=O)C(=O)N1 [GT-05825, 5-((1R,4R)-2-oxa-5-azabicyclo[2.2.1]heptan-5-yl)-N-(3-(difluoromethyl)-1-((1r,4R)-4-((3-(2-(2,4-dioxotetrahydropyrimidin-1(2H)-yl)-1,3-dioxoisoindolin-5-yl)-3,8-diazabicyclo[3.2.1]octan-8-yl)methyl)cyclohexyl)-1H-pyrazol-4-yl)pyrazolo[1,5-a]pyrimidine-3-carboxamide] | – | – | 25 to 30% | 15 to 20% | – | – |

From patent US20260364184A1, “COMPOUND BASED ON OXOISOINDOLINYL-SUBSTITUTED TETRAHYDROPYRIMIDINE-DIONE AND USE THEREOF” (GLUETACS THERAPEUTICS (SHANGHAI) CO., LTD., priority 2023, published 2026)
